The values below come from article PMC13372822 (The EMBO Journal, 2026).

SMILES strings stand for the structures. Substitutions are numbered along the chain they refer to.

Assay [1] concerns the target T1, OXGR1 (Homo sapiens, UniProt Q96P68). The assay is described as follows: cAMP assay, Gi pathway (OXGR1-Gi-cAMP Assay). The class given is cell-based. The conditions noted are these: OXGR1 WT. Also noted: The full-length human OXGR1 and mutations were fused after the HA signal peptide and Flag tag; HA signal peptide (N); Flag (N); expressed in transfected cells; host or cells: HEK293 (pcDNA3.0, transient electroporation). The protocol:
In brief, cells expressing OXGR1 were seeded in a plate at a density of 1 × 10^6 cells/well and cultured overnight. After 24 h culture, cells were harvested and re-suspended in DMEM containing 500 µM IBMX at a density of 2 × 10^5 cells/mL. Then, cells were plated onto 384-well assay plates at a density of 1000 cells/5 µL/well. Another 5 µL buffer containing compounds at various concentrations was added to the cells, and the incubation lasted for 30 min at 37 °C. Intracellular cAMP level was tested by a LANCE Ultra cAMP kit (PerkinElmer, TRF0264) and EnVision multiplate reader according to the manufacturer’s instructions.

In a further assay the target is T2, HCAR1 (Homo sapiens, UniProt Q9BXC0).
T2 construct: expressed in transfected cells; host or cells: HEK293 stably expressing Gα16
The assay is described as follows: Calcium mobilization assay, HCAR1 in HEK293 stably expressing Gα16. Format: cell-based. The conditions noted are these: in words; related receptor. (In general: A change in cytosolic calcium serves as a functional read-out for many receptors and channels.)

The target in the next assay is T3, HCAR2 (Homo sapiens, UniProt Q8TDS4).
T3 construct: expressed in transfected cells; host or cells: HEK293 stably expressing Gα16
The assay is described as follows: Calcium mobilization assay, HCAR2 in HEK293 stably expressing Gα16. The class given is cell-based. Particulars: in words; related receptor.

A further assay addresses T4, SUCR1 (Homo sapiens, UniProt Q9BXA5).
T4 construct: The full-length human SUCR1 and mutations were fused after the HA signal peptide and Flag tag; HA signal peptide (N); Flag (N); expressed in transfected cells; host or cells: HEK293 stably expressing Gα16 (pcDNA6.0, transient electroporation)
T4 sequence (Q9BXA5 1-334): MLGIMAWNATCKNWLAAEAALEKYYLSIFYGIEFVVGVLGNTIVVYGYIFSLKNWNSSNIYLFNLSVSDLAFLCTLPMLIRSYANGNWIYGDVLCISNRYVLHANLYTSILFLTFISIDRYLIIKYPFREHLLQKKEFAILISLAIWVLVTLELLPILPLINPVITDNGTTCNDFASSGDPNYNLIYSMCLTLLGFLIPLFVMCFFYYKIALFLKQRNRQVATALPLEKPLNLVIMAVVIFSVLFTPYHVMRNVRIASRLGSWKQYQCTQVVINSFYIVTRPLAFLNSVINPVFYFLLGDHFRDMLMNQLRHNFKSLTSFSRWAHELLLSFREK
The assay is described as follows: Calcium mobilization assay, wild-type SUCR1 in HEK293 stably expressing Gα16.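 On Emax: percent of the maximal response to succinate.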 The class given is cell-based. The conditions noted are these: for activation of SUCR1: in words.

Assay [2] has as its target T5, SUCR1 mutants (variant named in the endpoint) (Homo sapiens, UniProt Q9BXA5, Y248F).
T5 construct: The full-length human SUCR1 and mutations were fused after the HA signal peptide and Flag tag; HA signal peptide (N); Flag (N); expressed in transfected cells; host or cells: HEK293 stably expressing Gα16 (pcDNA6.0, transient electroporation)
T5 sequence (Q9BXA5 1-334 Y248F): T4 sequence (Q9BXA5 1-334) with Y248F
As to the kind of experiment: Calcium mobilization assay, SUCR1 mutants in HEK293 stably expressing Gα16.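 On Emax: percent of the maximal response to succinate.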 Format: cell-based.
Procedure: (§6) The full-length human SUCR1 and mutations were fused after the HA signal peptide and Flag tag. The constructs were cloned into pcDNA6.0 vector for HEK293 system.
(§7) HEK293 cells were obtained from ATCC (Manassas, VA, USA) and cultured in DMEM supplemented with 10% (v/v) FBS, 100 mg/L penicillin, and 100 mg/L streptomycin in 5% CO2 at 37 °C. For transient transfection, ~2.5 × 10^6 cells were mixed with 2 µg plasmids in 200 µL transfection buffer, and electroporation was carried out with a Scientz-2C electroporation apparatus (Scientz Biotech, Ningbo, China). The experiments were carried out 24 h after transfection. HEK293 cell lines stably expressing Gα16 were constructed by our laboratory.
(§8) For OXGR1, plasmids were transfected into HEK293 (other receptors were transfected into HEK293 stably expressing Gα16) and seeded at a density of 4 × 10^4 per well into 96-well culture plates and incubated for 24 h at 37 °C in 5% CO2. The next day, Cells were incubated with 2 μM/L Fluo-4 AM in HBSS supplemented with 5.6 mM/L D-glucose and 250 μM/L sulfinpyrazone at 37 °C for 45 min. […] Three independent measurements were repeated, i.e., three different transfections, with three technical replicates performed for each experiment. EC50 and Emax values for each curve were calculated by Prism 8.0 software (GraphPad Software).

The test system of assay [3] is SUCR1 mutants (variant named in the endpoint). The description is as above. Format: cell-based, human. Particulars: in words.
Procedure: as §6, §7, §8
Assay [4] concerns the target T6, SUCR1 mutants (variant named in the endpoint) (Homo sapiens, UniProt Q9BXA5, F285A/L102F/Y248F).
T6 construct: The full-length human SUCR1 and mutations were fused after the HA signal peptide and Flag tag; HA signal peptide (N); Flag (N); expressed in transfected cells; host or cells: HEK293 stably expressing Gα16 (pcDNA6.0, transient electroporation)
T6 sequence (Q9BXA5 1-334 L102F/Y248F/F285A): T4 sequence (Q9BXA5 1-334) with L102F, Y248F, F285A
The assay is described as above. Particulars: SUCR1 L102F-F285A-Y248F. The class given is cell-based.
Procedure: as §6, §7, §8

For assay [5], the target named is T1, OXGR1. The assay is described as follows: Immunofluorescence assay of OXGR1 internalization. The class given is cell-based. The conditions noted are these: 300 μM AKG, 0 or 30 min at 37°C. Further details: The full-length human OXGR1 and mutations were fused after the HA signal peptide and Flag tag; HA; expressed in transfected cells; host or cells: HEK293, transient. The protocol: (§1) Figure. R2 | Effect of L2997x50P mutant on activation and internalization of OXGR1. […]
(§2) responses. Responses were normalized to 100% for wild-type. Data are mean ± S.E.M. from three independent experiments (n = 3), with three technical replicates performed for each […]
(§3) experiment. […] HEK293 cells transiently […]
(§4) transfected with HA-tagged OXGR1 -WT or L299 7x50P mutant, were incubated with 300 μM […]
(§5) OXGR1 were stained with anti-HA (green). Cell nuclei were (1 picture or pasted object on this page, not shown here)

The target in assay [6] is T7, OXGR1 (Homo sapiens, UniProt Q96P68, L299P).
T7 construct: The full-length human OXGR1 and mutations were fused after the HA signal peptide and Flag tag; HA; expressed in transfected cells; host or cells: HEK293, transient
The assay is described as follows: Immunofluorescence assay of OXGR1 internalization. The conditions noted are these: 300 μM AKG, 0 or 30 min at 37°C. Format: cell-based. The procedure: as §1, §2, §3, §4, §5

T3 sequence (Q8TDS4 whole entry): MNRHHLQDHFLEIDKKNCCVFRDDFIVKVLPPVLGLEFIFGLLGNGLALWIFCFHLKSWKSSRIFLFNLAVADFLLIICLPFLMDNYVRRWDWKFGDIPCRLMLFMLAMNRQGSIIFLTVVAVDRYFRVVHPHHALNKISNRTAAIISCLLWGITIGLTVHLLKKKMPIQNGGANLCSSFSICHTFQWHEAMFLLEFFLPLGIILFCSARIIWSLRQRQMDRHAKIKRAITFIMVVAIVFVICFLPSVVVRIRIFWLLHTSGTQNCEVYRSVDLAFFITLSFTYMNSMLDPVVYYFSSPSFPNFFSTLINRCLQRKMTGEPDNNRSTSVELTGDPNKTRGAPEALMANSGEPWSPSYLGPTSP
T2 sequence (Q9BXC0 whole entry, species assumed): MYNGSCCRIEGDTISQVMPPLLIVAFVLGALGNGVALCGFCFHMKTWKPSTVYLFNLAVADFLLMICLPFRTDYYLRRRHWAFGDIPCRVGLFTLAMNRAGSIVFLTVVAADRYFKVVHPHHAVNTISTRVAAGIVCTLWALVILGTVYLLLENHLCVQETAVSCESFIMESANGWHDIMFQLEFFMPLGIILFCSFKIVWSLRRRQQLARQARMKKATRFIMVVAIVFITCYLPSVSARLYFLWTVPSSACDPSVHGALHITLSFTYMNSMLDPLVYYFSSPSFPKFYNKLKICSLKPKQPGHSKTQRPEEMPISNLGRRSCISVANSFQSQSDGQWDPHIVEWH
Procedure for HCAR1: as §7, §8
Procedure for HCAR2: as §7, §8

In the case of `C=C(CC(=O)O)C(=O)O` [ITA, itaconate], the “activation of Gi signaling” value on OXGR1 [1] is given as “no detectable activation”. Further, at HCAR1, the “activation of HCAR1” value was “no detectable activation”. For the same molecule, on HCAR2, the “activation of HCAR2” value is on record as “no detectable activation”. Also, the “activation of SUCR1” value on SUCR1 is given as “only minimal activation”. Also, the Emax in [2] (HEK293, SUCR1 Y248F, Emax relative to the SUC) turned out to be 15 ± 2%. The “ITA activation of SUCR1-L102F, SUCR1-L102F-F285A, SUCR1-L102F-F175L” value in [3] is “further enhanced ITA activation in both potency and efficiency”.
For the molecule `O=C(O)CCC(=O)O` [SUC, succinate], the EC50 was 810 ± 90 µM in assay [2] (SUCR1 Y248F) and 2200 ± 220 µM in [4].
Consider `O=C(O)CCC(=O)C(=O)O` [AKG, α-ketoglutarate], for which the “activation of Gi signaling” value at OXGR1 [1] is listed as “no detectable activation”. For the same molecule, the “internalization of WT-OXGR1” value at OXGR1 [5] is listed as “internalizes”. For the same molecule, the Emax on SUCR1 (HEK293) stood at 3.5 ± 3%. The “activation of SUCR1” value at SUCR1 is on record as “no cross-reactivity”. In addition, the “internalization of OXGR1 L299P mutant” value on OXGR1 [6] is “remains at the plasma membrane”.

The Emax is the maximal effect, on the per cent scale that the assay sets. The term EC50 denotes the midpoint of the concentration-response curve.
